Test results published in patent US20030162765A1, “2-amino-6-(2-substituted-4-phenoxy)-substituted-pyridines” (Pfizer Inc., priority 1997, published 2003).
Structures can show the parent of a compound that is named as a salt.

melting point | Compound
225 to 228 °C | COc1cc(-c2cccc(N)n2)ccc1OCCN(C)C (as salt: hydrochloride) [Example 6, 6-[4-(2-Dimethylamino-ethoxy)-3-methoxy-phenyl]-pyridin-2-ylamine]
> 220 °C | Cc1cc(-c2cccc(N)n2)c(C)cc1OCCN1CCN(CCc2ccccc2)CC1 (as salt: hydrochloride) [Example 111, 6-[4-(2-(4-Phenethylpiperazin-1-yl)-ethoxy)-2,5-dimethyl-phenyl]-pyridin-2-ylamine]
167 to 182 °C | COc1cc(-c2cccc(N)n2)ccc1OCCN1CCN(CCc2ccccc2)CC1 (as salt: hydrochloride) [Example 9, 6-{3-methoxy-4-[2-(4-phenethyl-piperazin-1-yl)-ethoxy]-phenyl}-pyridin-2-ylamine]

More lines, now with the values behind:

Compound | melting point
CCOc1cc(-c2cccc(N)n2)ccc1OCCN(C)C (as salt: hydrochloride) [Example 12, 6-[4-(2-Dimethylamino-ethoxy)-3-ethoxy-phenyl]-pyridin-2-ylamine] | 210 to 216 °C
Cc1cc(-c2cccc(N)n2)c(C)cc1OCCN(C)C (as salt: hydrochloride) [Example 110, 6-[4-(2-dimethylamino-ethoxy)-2,5-dimethyl-phenyl]-pyridin-2-ylamine] | 205 to 209 °C
